According to article PMC4125495 (DNA repair, 2014):
Like-named read-outs stand apart in the source and are kept apart here.

Key:
[1] = molecular target: PARP1 (Gallus gallus, UniProt P26446); test: PAR ELISA assay; type: cell-based
[2] = test system: DT40 hTDP1 cells; conditions: no CPT vs CPT (Table 1)
[3] = test system: BRCA2tr/- cells; conditions: cited from earlier work
[4] = test system: TDP1-/- cells; test: Secondary screening cell viability assay; conditions: 5 and 10 nM CPT
[5] = test system: BRCA2tr/- cells; test: Cell viability assay; type: cell-based, chicken; conditions: single agent, compared with PARP1-/- and hTDP1 cells
[6] = test system: hTDP1 cells; test: Secondary screening cell viability assay; conditions: 15 and 20 nM CPT
[7] = read-out: IC50 Poly (ADP-ribose) lation, PAR ELISA

Chain of PARP1 (P26446 whole entry): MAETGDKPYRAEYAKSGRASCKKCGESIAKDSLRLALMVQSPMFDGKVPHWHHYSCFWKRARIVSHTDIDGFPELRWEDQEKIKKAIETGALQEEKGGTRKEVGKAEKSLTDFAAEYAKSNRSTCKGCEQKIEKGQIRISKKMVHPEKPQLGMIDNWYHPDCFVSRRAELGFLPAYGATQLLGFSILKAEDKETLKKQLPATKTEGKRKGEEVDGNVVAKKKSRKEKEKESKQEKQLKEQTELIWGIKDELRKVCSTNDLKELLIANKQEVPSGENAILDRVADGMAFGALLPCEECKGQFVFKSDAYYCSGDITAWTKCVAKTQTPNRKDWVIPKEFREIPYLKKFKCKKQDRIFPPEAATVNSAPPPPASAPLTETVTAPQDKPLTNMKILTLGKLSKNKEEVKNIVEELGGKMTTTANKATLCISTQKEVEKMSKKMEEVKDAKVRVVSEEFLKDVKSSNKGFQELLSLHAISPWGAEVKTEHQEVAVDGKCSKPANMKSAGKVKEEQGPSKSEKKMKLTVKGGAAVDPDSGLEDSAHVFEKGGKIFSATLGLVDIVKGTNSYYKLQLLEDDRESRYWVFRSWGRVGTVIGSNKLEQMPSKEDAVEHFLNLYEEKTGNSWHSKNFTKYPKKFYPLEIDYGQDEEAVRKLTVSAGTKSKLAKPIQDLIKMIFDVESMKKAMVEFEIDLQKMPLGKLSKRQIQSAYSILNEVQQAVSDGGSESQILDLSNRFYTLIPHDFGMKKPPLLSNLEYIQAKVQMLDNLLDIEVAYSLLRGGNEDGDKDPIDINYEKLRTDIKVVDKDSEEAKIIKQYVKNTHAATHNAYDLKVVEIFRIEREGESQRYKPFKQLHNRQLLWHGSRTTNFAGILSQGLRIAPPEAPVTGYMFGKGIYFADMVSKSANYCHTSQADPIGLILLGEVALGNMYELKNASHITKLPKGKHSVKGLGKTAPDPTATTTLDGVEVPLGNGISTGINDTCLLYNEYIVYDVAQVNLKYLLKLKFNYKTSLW

| SMILES | IC50 [1] [nM] | fold potentiation of cytotoxicity in the presence of CPT [2] [fold] | cytotoxic effect in BRCA2tr/- cells [3] | potentiating (synergistic) effect with CPT in TDP1-/- cells [4] | IC50 [1, 7] [nM] | cytotoxic effect in BRCA2tr/- cells [5] | potentiating (synergistic) effect with CPT in hTDP1 cells [6] |
| --- | --- | --- | --- | --- | --- | --- | --- |
| C[C@]1(c2nc3c(C(N)=O)cccc3[nH]2)CCCN1 [Veliparib, reference compound] | < 20 | 466 | selectively cytotoxic | lack of synergistic effect |  |  |  |
| O=C(Nc1cccc2c(=O)[nH][nH]c(=O)c12)c1ccc([N+](=O)[O-])cc1 [Cpd5] |  |  |  |  | 4600 |  |  |
| CC(=O)Nc1ccc2c(c1)[nH]c(=O)c1ccccc12 [Cpd1] |  | 166 |  | without showing any apparent potentiating effect | < 20 | selectively cytotoxic | greatest potentiating effect |
